From patent US12144864B2, “Tubulysins and protein-tubulysin conjugates” (Regeneron Pharmaceuticals, Inc., priority 2018, dated 2024) come the findings set out here.

SMILES strings stand for the structures. Read-outs that look alike come from different tables or passages of the source. Bounds are passed on as bounds.

One experiment concerns C4-2 cells. Briefly: Cell-based killing assay of payloads (CellTiter-Glo), C4-2 cells. Also noted: species or system human. As to conditions: 5-day incubation; for IC50: Homo sapiens, C4-2, 120 h, average ± SD where replicates; for C4-2 % Kill: at maximum concentration tested (100 − % viable cells). The procedure, abridged: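 Cells plated at 4000/well in line-specific complete medium, grown overnight, then exposed to 1:3 serial dilutions of payload (100 nM to […]) for 5 days. ATP-based CellTiter-Glo luminescence read; IC50 from four-parameter logistic 10-point fit, and % kill at top concentration as 100 − % viable.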
On the technique in general: ATP-based viability assays read luminescence as a measure of living cells.

The next experiment concerns HEK293 cells. Briefly: Cell-based killing assay of payloads (CellTiter-Glo), HEK293 cells. Set-up: species or system human. As to conditions: 5-day incubation; for IC50: Homo sapiens, HEK293, 120 h; for HEK293 % Kill: at maximum concentration tested. The method, then:
(§1) To test the ability of the disclosed tubulysin payloads to kill human cell lines, an in vitro cytotoxicity assay was performed. In vitro cytotoxicity of the disclosed payloads, as well as reference compounds, were evaluated using the CellTiter-Glo Assay Kit (Promega, Cat #G7573), in which the quantity of ATP present is used to determine the number of viable cells in culture. For the assay, C4-2, HEK293, or T47D cells were seeded at 4000 cells/well on Nunclon white 96-well plates in complete growth medium (DME high glucose:Ham's F12 at 4:1, 10% FBS, 100 units/ml Penicillin, 100 ug/ml streptomycin, 53 ug/ml glutatmine, 10 ug/ml insulin, 220 ng/ml biotin, 12.5 pg/ml T3, 12.5 ug/ml Adenine, 4 ug/ml transferrin for C42 cells; DME high glucose, 10% FBS, 100 units/ml Penicillin, 100 ug/ml streptomycin, 53 ug/ml glutatmine for HEK293; RPMI, 10% FBS, 100 units/ml Penicillin, 100 ug/ml streptomycin, 53 ug/ml glutatmine, 10 ug/ml insulin, 10 mM HEPEs, 200 nM Sodium Pyruvate for T47D cells) and grown overnight at 37° C. in 5% CO2. For cell viability curves, 1:3 serially diluted payloads were added to the cells at final concentrations ranging from 100 nM to […], including a no treatment control group, and were then incubated for 5 days. After the 5-day incubation, cells were incubated at room temperature with 100 μL of CellTiter-Glo reagents for 10 minutes. Relative luminescence units (RLU) were determined on a Victor plate reader (PerkinElmer). The IC50 values were determined from a four-parameter logistic equation over a 10-point response curve (GraphPad Prism). All IC50 values are expressed in molar (M) concentration. The percent cell killing (% kill) at the maximum concentration tested was estimated from the following formula (100−% viable cells). Averages±standard deviation (SD) are included where replicate experiments were performed.

The test system of the next experiment is HCT15 cells. Briefly: cells. Particulars: HCT15 cells; for HCT-15 + verapamil % Kill / HCT-15 % Kill: maximum % cell killing. The format is cell-based, human. The procedure, abridged: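 HCT15 colorectal carcinoma cells, 1000 per well in RPMI/10% FBS, with or without 5 ug/mL verapamil, exposed to 1:3 serially diluted payloads for 5 days at 37 °C. Viability measured by CellTiter-Glo ATP luminescence; IC50 from four-parameter logistic fit of a 10-point curve, % kill at top concentration.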

The test system of a further experiment is T47D cells. Description: Cell-based killing assay of payloads (CellTiter-Glo), T47D cells. Also noted: species or system human. Particulars: 5-day incubation; for IC50: Homo sapiens, T47D, 120 h; for T47D % Kill: at maximum concentration tested. The method, then: as §1
[1] abbreviates: with 5 ug/mL Verapamil, read-out: HCT-15 + verapamil IC50.
Where [2] appears, read: Homo sapiens, HCT-15, without Verapamil, read-out: HCT-15 IC50.

What is called IC50 is the concentration that inhibits the measured activity by half. For `C#CCCCON(C(=O)[C@@H](NC(=O)[C@H]1CCCCN1C)[C@@H](C)CC)[C@H](C[C@@H](OC(C)=O)c1nc(C(=O)N[C@@H](Cc2ccc(F)cc2)CC(C)(C)C(=O)O)cs1)C(C)C` [Vd, (4S)-4-({2-[(1R,3R)-1-(Acetyloxy)-4-methyl-3-[(2S,3S)-3-methyl-2-{[(2R)-1-methylpiperidin-2-yl]formamido}-N-(pent-4-yn-1-yloxy)pentanamido]pentyl]-1,3-thiazol-4-yl}formamido)-5-(4-fluorophenyl)-2,2-dimethylpentanoic acid], the IC50 in the experiment with C4-2 cells is 0.384 nM; with HEK293 cells, 0.59 nM; with HCT15 cells (setting [1]), 0.352 nM; with HCT15 cells (setting [2]), 1.93 nM; with T47D cells, 0.444 nM. Also, the “C4-2 % Kill” value with C4-2 cells was found to be 91.3%. Moreover, in the experiment with HEK293 cells, the “HEK293 % Kill” value was determined as 86.3%. For the same compound, in the experiment with HCT15 cells (with 5 ug/mL Verapamil), the “HCT-15 + verapamil % Kill” value is recorded as 98.7%. The “HCT-15 % Kill” value in the experiment with HCT15 cells (without Verapamil) is listed as 99.7%. Moreover, the “T47D % Kill” value with T47D cells was found to be 66%.
As for `CCCCCCON(C(=O)[C@@H](NC(=O)[C@H]1CCCCN1C)[C@@H](C)CC)[C@H](C[C@@H](OC(=O)NCCCC)c1nc(C(=O)N[C@@H](Cc2ccc(O)cc2)C[C@H](C)C(=O)O)cs1)C(C)C` [VId, (2S,4R)-5-(4-Hydroxyphenyl)-4-(2-((8R,10R)-10-isopropyl-11-((2S,3S)-3-methyl-2-((R)-1-methylpiperidine-2-carboxamido)pentanoyl)-6-oxo-7,12-dioxa-5,11-diazaoctadecan-8-yl)thiazole-4-carboxamido)-2-methylpentanoic acid], the IC50 with C4-2 cells is 2.4 nM; with HEK293 cells, 5.26 nM; in the experiment on HCT15 cells (setting [1]) it was 0.482 nM; in the experiment with HCT15 cells (setting [2]), above 30 nM; with T47D cells, 2.51 nM. In addition, in the experiment with C4-2 cells, the “C4-2 % Kill” value is 95.5 ± 2.6%. In the experiment on HEK293 cells, the “HEK293 % Kill” value came to 78.5%. Also, the “HCT-15 + verapamil % Kill” value with HCT15 cells (with 5 ug/mL Verapamil) came out at 99%. The “HCT-15 % Kill” value in the experiment with HCT15 cells (without Verapamil) is given as 78.7%. The “T47D % Kill” value in the experiment on T47D cells worked out at 68.4%.
For `C#CCCCON(C(=O)[C@@H](NC(=O)[C@H]1CCCCN1C)[C@@H](C)CC)[C@H](C[C@@H](OC(C)=O)c1nc(C(=O)N[C@@H](Cc2ccc(F)cc2)C[C@H](C)C(=O)O)cs1)C(C)C` [Vf, (2S,4R)-4-({2-[(1R,3R)-1-(Acetyloxy)-4-methyl-3-[(2S,3S)-3-methyl-2-{[(2R)-1-methylpiperidin-2-yl]formamido}-N-(pent-4-yn-1-yloxy)pentanamido]pentyl]-1,3-thiazol-4-yl}formamido)-5-(4-fluorophenyl)-2-methylpentanoic acid], the IC50 in the experiment with C4-2 cells came out at 0.9 nM; with HEK293 cells, 0.666 nM; with HCT15 cells (setting [1]), 0.375 nM; in the experiment with HCT15 cells (setting [2]) it was 3.36 nM; in the experiment with T47D cells it was 0.396 nM. The “C4-2 % Kill” value with C4-2 cells amounted to 90%. In the experiment on HEK293 cells, the “HEK293 % Kill” value stood at 83.8%. Also, the “HCT-15 + verapamil % Kill” value in the experiment on HCT15 cells (with 5 ug/mL Verapamil) is recorded as 98%. In addition, the “HCT-15 % Kill” value in the experiment on HCT15 cells (without Verapamil) came out at 96.5%. Also, the “T47D % Kill” value with T47D cells was 68%.
Consider `CC[C@H](C)[C@H](NC(=O)[C@H]1CCCCN1C)C(=O)N(OCCCOCc1ccc(N)cc1)[C@H](C[C@@H](OC(C)=O)c1nc(C(=O)N[C@@H](Cc2ccc(O)cc2)C[C@H](C)C(=O)O)cs1)C(C)C` [Vj, (2S,4R)-4-(2-((8R,10R)-1-(4-Aminophenyl)-8-isopropyl-7-((2S,3S)-3-methyl-2-((R)-1-methylpiperidine-2-carboxamido)pentanoyl)-12-oxo-2,6,11-trioxa-7-azatridecan-10-yl)thiazole-4-carboxamido)-5-(4-hydroxyphenyl)-2-methylpentanoic acid], for which the IC50 in the experiment on C4-2 cells was 53.1 nM; with HEK293 cells, above 100 nM; in the experiment on HCT15 cells (setting [1]) it was 39.2 nM; in the experiment on HCT15 cells (setting [2]), above 100 nM; in the experiment on T47D cells, above 100 nM. In addition, in the experiment on C4-2 cells, the “C4-2 % Kill” value was found to be 68.5 ± 39.2%. The “HEK293 % Kill” value in the experiment on HEK293 cells is 4.7%. Further, the “HCT-15 + verapamil % Kill” value in the experiment on HCT15 cells (with 5 ug/mL Verapamil) came out at 77.4%. Besides, in the experiment with HCT15 cells (without Verapamil), the “HCT-15 % Kill” value was −3.8%. The “T47D % Kill” value in the experiment on T47D cells came to 14.6%.
In the case of `CC[C@H](C)[C@H](NC(=O)[C@H]1CCCCN1C)C(=O)N(CCCCc1c[nH]nn1)[C@H](C[C@@H](OC(C)=O)c1nc(C(=O)N[C@@H](Cc2ccc(N)cc2)CC(C)(C)C(=O)O)cs1)C(C)C` [IVj, (S)-4-(2-((1R,3R)-3-((2S,3S)—N-(4-(1H-1,2,3-triazol-5-yl)butyl)-3-methyl-2-((R)-1-methylpiperidine-2-carboxamido)pentanamido)-1-acetoxy-4-methylpentyl)thiazole-4-carboxamido)-5-(4-aminophenyl)-2,2-dimethylpentanoic acid], the IC50 in the experiment with C4-2 cells was determined as 7.16 nM; in the experiment on HEK293 cells, 17.6 nM; with HCT15 cells (setting [1]), 5.56 nM; in the experiment on HCT15 cells (setting [2]) it was 7.8 nM; with T47D cells, 17.7 nM. Also, in the experiment with C4-2 cells, the “C4-2 % Kill” value came out at 94.5%. Moreover, the “HEK293 % Kill” value in the experiment with HEK293 cells came to 75.5%. In addition, in the experiment on HCT15 cells (with 5 ug/mL Verapamil), the “HCT-15 + verapamil % Kill” value is given as 98.4%. Also, the “HCT-15 % Kill” value in the experiment on HCT15 cells (without Verapamil) is listed as 96.4%. In addition, the “T47D % Kill” value with T47D cells turned out to be 79.9%.
For the compound `CCCCCCON(C(=O)[C@@H](NC(=O)[C@H]1CCCCN1C)[C@@H](C)CC)[C@H](C[C@@H](OC(=O)NCC)c1nc(C(=O)N[C@@H](Cc2ccc(O)cc2)C[C@H](C)C(=O)O)cs1)C(C)C` [VIb, (2S,4R)-5-(4-hydroxyphenyl)-4-(2-((6R,8R)-8-isopropyl-9-((2S,3S)-3-methyl-2-((R)-1-methylpiperidine-2-carboxamido)pentanoyl)-4-oxo-5,10-dioxa-3,9-diazahexadecan-6-yl)thiazole-4-carboxamido)-2-methylpentanoic acid], the IC50 in the experiment with C4-2 cells is 12 nM; in the experiment on HEK293 cells, 20.3 nM; with HCT15 cells (setting [1]), 2.88 nM; with HCT15 cells (setting [2]) it was above 50 nM; in the experiment with T47D cells, 13.6 nM. Further, the “C4-2 % Kill” value with C4-2 cells was determined as 96.5%. Besides, the “HEK293 % Kill” value in the experiment with HEK293 cells worked out at 75.4%. The “HCT-15 + verapamil % Kill” value with HCT15 cells (with 5 ug/mL Verapamil) is recorded as 97.8%. Besides, the “HCT-15 % Kill” value in the experiment with HCT15 cells (without Verapamil) was found to be 54.7%. In addition, the “T47D % Kill” value with T47D cells was 76.2%.
In the case of `CC[C@H](C)[C@H](NC(=O)[C@H]1CCCCN1C)C(=O)N(OCCCO)[C@H](C[C@@H](OC(C)=O)c1nc(C(=O)N[C@@H](Cc2ccc(O)cc2)C[C@H](C)C(=O)O)cs1)C(C)C` [Vk, (2S,4R)-4-(2-((1R,3R)-1-Acetoxy-3-((2S,3S)—N-(3-hydroxypropoxy)-3-methyl-2-((R)-1-methylpiperidine-2-carboxamido)pentanamido)-4-methylpentyl)thiazole-4-carboxamido)-5-(4-hydroxyphenyl)-2-methylpentanoic acid], the IC50 was above 100 nM with HEK293 cells, 42.7 nM with HCT15 cells (setting [1]), at least 100 nM in the experiment with HCT15 cells (setting [2]) and above 100 nM in the experiment with T47D cells. The “HCT-15 + verapamil % Kill” value in the experiment with HCT15 cells (with 5 ug/mL Verapamil) is listed as 83%. Further, the “HCT-15 % Kill” value in the experiment on HCT15 cells (without Verapamil) was found to be 41.5%.
As for `CCCCCCNC(=O)O[C@H](C[C@H](C(C)C)N(OCCCCCC)C(=O)[C@@H](NC(=O)[C@H]1CCCCN1C)[C@@H](C)CC)c1nc(C(=O)N[C@@H](Cc2ccc(O)cc2)C[C@H](C)C(=O)O)cs1` [VIe, (2S,4R)-5-(4-Hydroxyphenyl)-4-(2-((9R,11R)-9-isopropyl-8-((2S,3S)-3-methyl-2-((R)-1-methylpiperidine-2-carboxamido)pentanoyl)-13-oxo-7,12-dioxa-8,14-diazaicosan-11-yl)thiazole-4-carboxamido)-2-methylpentanoic acid], the IC50 is 8.22 nM in the experiment with C4-2 cells; 4.77 nM with HEK293 cells; 0.295 nM in the experiment on HCT15 cells (setting [1]); above 100 nM in the experiment with HCT15 cells (setting [2]); 2.27 nM in the experiment on T47D cells. Also, the “C4-2 % Kill” value in the experiment with C4-2 cells is recorded as 94.4 ± 0.2%. Further, the “HEK293 % Kill” value with HEK293 cells is recorded as 76.7%. For the same compound, the “HCT-15 + verapamil % Kill” value with HCT15 cells (with 5 ug/mL Verapamil) is 98.8%. The “HCT-15 % Kill” value in the experiment with HCT15 cells (without Verapamil) came out at 36.6%. For the same compound, the “T47D % Kill” value in the experiment on T47D cells was 72.7%.
